Data taken from patent publication US4038384A, “Antibiotic A-28086 and process for production thereof” (Eli Lilly and Company, priority 1975, dated 1977).

Tests used:
[1] = tested on: Staphylococcus aureus (H-Heatley) NRRL B-314; assay: Turbidometric assay (Autoturb), relative gram-positive activity; format: cell-based; details: relative to A-28086 factor A standard = 1; nutrient broth pH 7, 4 hours, 37° C.
Procedure: The C2 -C6 -acyl ester derivatives of A-28086 factor A also have antibacterial and antifungal activity. In one aspect, these derivatives have increased gram-positive activity. The relative gram-positive activities of certain of these derivatives were compared with the activity of factor A. The compounds were tested by turbidometric assay on a semiautomated system (Autoturb microbiological assay system, Elanco) described by N. R. Kuzel and F. W. Kavanaugh in J. Pharmaceut. Sci. 60 (5), 764 and 767 (1971). In testing the A-28086 antibiotics, the following test parameters were used: Staphylococcus aureus (H-Heatley) NRRL B-314 in a nutrient broth medium (pH 7), incubated for 4 hours at 37° C. Test samples and the standard were dissolved in methanol-water (10:90). The standard, A-28086 factor A, was presented to the Autoturb carrousel at concentrations of 2, 3, 4, and 5 mcg/ml. Test compounds were diluted to contain approximately 3 or 4 mcg of activity per ml, as presented to the carrousel. The relative activities of test compounds, as compared to that of the standard, are given below: […]

rumen flora = assay: In vitro rumen fluid test, volatile fatty acid production; format: cell-based, steer; details: 1 ppm in rumen fluid, 16 hours, 38° C.
Description: As discussed hereinabove, efficiency of carbohydrate utilization in ruminants is increased by treatments which stimulate the animal's rumen flora to produce propionate compounds rather than acetate or butyrate compounds. The efficiency of feed use can be monitored by observing the production and concentration of propionate compounds in the rumen, using the following methods:
Rumen fluid is obtained from a steer with a surgically-installed fistula opening into the rumen. The steer is maintained on a high-grain ration. A sample of rumen fluid is strained through four layers of cheesecloth, and the filtrate is collected. The particulate matter retained by the cheesecloth is resuspended in enough physiological buffer to return it to the original volume of the rumen fluid, and this suspension is strained again. The buffer used has the following composition:
The two filtrates are combined and allowed to stand until particulate matter separates to the top. The clear layer is separated, diluted with the same buffer (1:1) and then adjusted to between pH 6.8 to 7.0.
The diluted rumen fluid (10 ml) is placed in a 25-ml flask with 40 mg of the above-described feed, an additional 1 mg of soybean protein, and the compound to be tested. Four replicate flasks are used per treatment. Two sets of four control flasks each are also employed. A zero-time control and an incubated 16-hour control are used. All test flasks are incubated for 16 hours at 38° C. […] The samples are allowed to settle, and the supernatants are analyzed by gas chromatography for propionate, acetate, and butyrate compounds.

[2] = Electrometric titration in 80% aqueous dimethylformamide (pKa)
[3] = Solubility in water and organic solvents; format: physicochemical; details: nonpolar organic solvents such as hexane
Eimeria tenella = assay: Anticoccidial activity in chicks against Eimeria tenella; format: in vivo, Eimeria tenella; chickens; details: for Percent Weight Gain: normal controls 100
[4] = tested on: E. necatrix and E. tenella; assay: Anticoccidial activity in chicks against mixed Eimeria species; format: in vivo, E. necatrix and E. tenella; broiler cockerels; details: 0.005% in feed
Description: (§1) ^1 Four replicates, 5 broiler cockerels each.

[5] = tested on: E. tenella, E. necatrix, E. maxima, E. brunetti, E. acervulina, and E. mivati; assay: as above; format: in vivo; details: 0.01% in feed
Description: as §1

ruminal propionic acid = assay: In vivo ruminal propionic acid concentration in fistulated steers; details: 100 mg/day, mean of five analyses in 14 days
Procedure: The test reported in Table XII was conducted with mature fistulated steers weighing about 1,000 lbs. each. Two steers were fed a normal diet, and four steers in each treatment group were fed an identical diet to which A-28086 factor A had been added. To each aliquot (100 ml) of rumen fluid taken, 10 percent metaphosphoric acid (100 ml) was added. The samples were allowed to settle, and the supernatants were analyzed by gas chromatographic methods to determine propionic acid concentrations.
The results in Table XII are the mean percent increases in ruminal propionic acid concentration, averaged over five analyses in a 14-day treatment period. Controls had approximately 20 molar percent propionic acid.

[6] = In vivo feed-utilization efficiency in sheep; details: 56 days
[7] = General microbiological (antibacterial/antifungal) activity; format: cell-based; details: in words

CCC(C(=O)O)C1OC(C(C)C(O)C(C)C(=O)C(CC)C2OC3(C=CC(OC(C)=O)C4(CCC(C)(C5CCC(O)(CC)C(C)O5)O4)O3)C(C)CC2C)C(C)CC1C (stereo not shown) [A-28086 factor A acetyl ester derivative, A-28086 factor A acetyl ester]
Relative G^+ Activity [1]: 2.5
Ratio of Treated to Control, Molar % acetate (rumen flora): 0.79
Ratio of Treated to Control, Molar % butyrate (rumen flora): 0.76
pKa value of titratable group [2]: 8.5

CCCC(=O)OC1C=CC2(OC(C(CC)C(=O)C(C)C(O)C(C)C3OC(C(CC)C(=O)O)C(C)CC3C)C(C)CC2C)OC12CCC(C)(C1CCC(O)(CC)C(C)O1)O2 (stereo not shown) [A-28086 factor A n-butyryl ester derivative]
Relative G^+ Activity [1]: 8
Ratio of Treated to Control, Molar % acetate (rumen flora): 0.91
Ratio of Treated to Control, Molar % butyrate (rumen flora): 0.81

CCCCCC(=O)OC1C=CC2(OC(C(CC)C(=O)C(C)C(O)C(C)C3OC(C(CC)C(=O)O)C(C)CC3C)C(C)CC2C)OC12CCC(C)(C1CCC(O)(CC)C(C)O1)O2 (stereo not shown) [A-28086 factor A n-caproyl ester derivative]
Relative G^+ Activity [1]: 20
Ratio of Treated to Control, Molar % acetate (rumen flora): 0.86
Ratio of Treated to Control, Molar % butyrate (rumen flora): 0.97
Ratio of Treated to Control, Total VFA mM/l (rumen flora): 0.99

CCCCC(=O)OC1C=CC2(OC(C(CC)C(=O)C(C)C(O)C(C)C3OC(C(CC)C(=O)O)C(C)CC3C)C(C)CC2C)OC12CCC(C)(C1CCC(O)(CC)C(C)O1)O2 (stereo not shown) [A-28086 factor A n-valeryl ester derivative]
Relative G^+ Activity [1]: 14
Ratio of Treated to Control, Molar % acetate (rumen flora): 0.92
Ratio of Treated to Control, Molar % butyrate (rumen flora): 0.79

CCC(=O)OC1C=CC2(OC(C(CC)C(=O)C(C)C(O)C(C)C3OC(C(CC)C(=O)O)C(C)CC3C)C(C)CC2C)OC12CCC(C)(C1CCC(O)(CC)C(C)O1)O2 (stereo not shown) [A-28086 factor A propionyl ester derivative]
Relative G^+ Activity [1]: 7
Ratio of Treated to Control, Molar % acetate (rumen flora): 0.90
Ratio of Treated to Control, Molar % butyrate (rumen flora): 0.68

CCC(C(=O)O)C1OC(C(C)C(O)C(C)C(=O)C(CC)C2OC3(C=CC(O)C4(CCC(C)(C5CCC(O)(CC)C(C)O5)O4)O3)C(C)CC2C)C(C)CC1C (stereo not shown) [A-28086 factor A]
solubility in nonpolar organic solvents [3]: only slightly soluble
Relative G^+ Activity [1]: 1
Percent Reduction in Lesion Score (Eimeria tenella; 0.0025% in feed, second group): 0%
Percent Mortality (Eimeria tenella; 0.0025% in feed, second group (20 chickens)): 10%
Percent Weight Gain (Eimeria tenella; 0.0025% in feed, second group): 87%
Average Lesion Score (Eimeria tenella; 0.005% in feed, second group): 2.8
Percent Reduction in Lesion Score (Eimeria tenella; 0.005% in feed, second group): 27%
Percent Mortality (Eimeria tenella; 0.005% in feed, second group (20 chickens)): 0%
Percent Weight Gain (Eimeria tenella; 0.005% in feed, second group): 91%
Average Lesion Score (Eimeria tenella; 0.01% in feed, first group): 0.2
Percent Reduction in Lesion Score (Eimeria tenella; 0.01% in feed, first group): 95%
Percent Mortality (Eimeria tenella; 0.01% in feed, first group (10 chickens)): 0%
Percent Weight Gain (Eimeria tenella; 0.01% in feed, first group): 94%
Average Lesion Score (Eimeria tenella; 0.01% in feed, second group): 0
Percent Reduction in Lesion Score (Eimeria tenella; 0.01% in feed, second group): 100%
Percent Mortality (Eimeria tenella; 0.01% in feed, second group (20 chickens)): 0%
Percent Weight Gain (Eimeria tenella; 0.01% in feed, second group): 96%
Average Lesion Score (Eimeria tenella; 0.02% in feed, first group): 0.2
Percent Reduction in Lesion Score (Eimeria tenella; 0.02% in feed, first group): 95%
Percent Mortality (Eimeria tenella; 0.02% in feed, first group (10 chickens)): 0%
Percent Weight Gain (Eimeria tenella; 0.02% in feed, first group): 82%
Average Lesion Score (Eimeria tenella; 0.02% in feed, second group): 0
Percent Reduction in Lesion Score (Eimeria tenella; 0.02% in feed, second group): 100%
Percent Mortality (Eimeria tenella; 0.02% in feed, second group (20 chickens)): 0%
Percent Weight Gain (Eimeria tenella; 0.02% in feed, second group): 84%
Average Lesion Score (Eimeria tenella; 0.04% in feed, first group): 0
Percent Reduction in Lesion Score (Eimeria tenella; 0.04% in feed, first group): 100%
Percent Mortality (Eimeria tenella; 0.04% in feed, first group (10 chickens)): 0%
Percent Weight Gain (Eimeria tenella; 0.04% in feed, first group): 50%
Cecal Lesions Percent Reducton [4]: 50%
Cecal Lesions Percent Reducton [5]: 73%
Ratio of Treated to Control, Molar % acetate (rumen flora): 0.94
Ratio of Treated to Control, Molar % butyrate (rumen flora): 0.87
Percent Increase Over Control in ruminal propionic acid concentration (ruminal propionic acid): 54.0%
Feed/Grain ([6]; 9 g per ton of feed): 7.40
Feed/Grain ([6]; 18 g per ton of feed): 8.31
pKa value of titratable group [2]: 7.9

CCC(C(=O)OC)C1OC(C(C)C(O)C(C)C(=O)C(CC)C2OC3(C=CC(O)C4(CCC(C)(C5CCC(O)(CC)C(C)O5)O4)O3)C(C)CC2C)C(C)CC1C (stereo not shown) [A-28086-I]
microbiological activity [7]: not microbiologically active
